Results as given in patent US20230146455A1, “TREATMENT OF INFLAMMATORY DISEASES WITH PEPTIDES AND PHARMACEUTICAL COMPOSITIONS” (Yuyu Pharma, Inc., priority 2020, published 2023).
“And” between values parts separate entries of the source, which are not always exact repeats. Identical values can stand only once. Where a SMILES comes first, the peptide text is derived from it. [ ]: non-standard residue; d: D form. Hyp = O=C(O)[C@@H]1C[C@@H](O)CN1

Test system: MMP-9
Assay: Example 9 Luminex, LPS hPBMCs: MMP-9
Format: cell-based, human
Description: Treatment Human PBMCs were pretreated with YY-101, YDE-011 and YDE-043 or reference compound; Xiidra® at various concentration (ranging from 1 nM to 100 uM) for 2 h before stimulation. An equal volume of 0.5% DMSO was used as a vehicle control. Then, the cells were treated with LPS at 5 ug/ml. The supernatants from treated cells were harvested at 24 h and placed in a 96 well for Luminex cytokine & chemokine profiling using a Luminex 200 multiplex assay (Luminex; R&D system, USA).
The main study arm with triplicate wells per group in a 24-well plate: • 1. Blank • 2. PBMC: 0.5% DMSO • 3. PBMC+LPS (5 ug/ml) • 4. PBMC+YY-101 100 uM • 5. PBMC+YY-101 10 uM • 6. PBMC+YY-101 1 uM • 7. PBMC+YY-101 0.1 uM • 8. PBMC+YY-101 0.01 uM • 9. PBMC+LPS (5 ug/ml)+Xiidra®100 uM • 10. PBMC+LPS (5 ug/ml)+Xiidra® 10 uM • 11. PBMC+LPS (5 ug/ml)+Xiidra® 1 uM • 12. PBMC+LPS (5 ug/ml)+Xiidra®0.1 uM • 13. PBMC+LPS (5 ug/ml)+Xiidra®0.01 uM • 14. PBMC+LPS (5 ug/ml)+Xiidra®0.001 uM • 15. PBMC+LPS (5 ug/ml)+YY-101 100 uM • 16. PBMC+LPS (5 ug/ml)+YY-101 10 uM • 17. PBMC+LPS (5 ug/ml)+YY-101 1 uM • 18. PBMC+LPS (5 ug/ml)+YY-101 0.1 uM • 19. PBMC+LPS (5 ug/ml)+YY-101 0.01 uM • 20. PBMC+LPS (5 ug/ml)+YY-101 0.001 uM • 21. PBMC+LPS (5 ug/ml)+YDE-011 100 uM • 22. PBMC+LPS (5 ug/ml)+YDE-011 10 uM • 23. PBMC+LPS (5 ug/ml)+YDE-011 1 uM • 24. PBMC+LPS (5 ug/ml)+YDE-011 0.1 uM • 25. PBMC+LPS (5 ug/ml)+YDE-011 0.01 uM • 26. PBMC+LPS (5 ug/ml)+YDE-011 0.001 uM • 27. PBMC+LPS (5 ug/ml)+YDE-043 100 uM • 28. PBMC+LPS (5 ug/ml)+YDE-043 10 uM • 29. PBMC+LPS (5 ug/ml)+YDE-043 1 uM • 30. PBMC+LPS (5 ug/ml)+YDE-043 0.1 uM • 31. PBMC+LPS (5 ug/ml)+YDE-043 0.01 uM • 32. PBMC+LPS (5 ug/ml)+YDE-043 0.001 uM
Multiplex assay was used to measure 30 cytokines and chemokines. The 1:2, 1:10 and 1:200 diluted cell supernatant and serial dilution of the standard were dispensed into a 96 well plate at 50 ul/well. Then, the pre-mixed cocktail of antibody-coated magnetic beads was dispensed at 50 ul/well and incubated at room temperature for 2 h in a horizontal orbital microplate shaker at 800±500 rpm. The beads were washed using a magnetic device to prevent loss. The biotin-antibody was dispensed in 50 ul of each well and incubated at room temperature for 1 h in a shaker at 800±500 rpm. After washing, streptavidin-PE was added at 50 ul/well and incubated at room temperature for 30 min in a shaker under the same conditions. Finally, after washing, wash buffer (100 ul/well) was added to the plate and incubated in a shaker for 2 min. The Luminex™ 200 setting were set according to the manufacturer's protocol. The data was calculated with a standard five-parameter logistic nonlinear regression analysis of the data (xPonent software 4.2, USA). The levels of cytokine/chemokine are normalized to the live cell counts (1×10^5 cells/mL) and presented as concentrations per mL (pg/mL or ng/mL).

[1] = PBMC + 0.01 uM, no LPS, single replicates
[2] = PBMC + 0.1 uM, no LPS, single replicates
[3] = PBMC + 1 uM, no LPS, single replicates
[4] = PBMC + 10 uM, no LPS, single replicates
[5] = PBMC + 100 uM, no LPS, single replicates
[6] = PBMC + LPS(5 ug/ml) + 0.001 uM, Mean
[7] = PBMC + LPS(5 ug/ml) + 0.001 uM, single replicates
[8] = PBMC + LPS(5 ug/ml) + 0.01 uM, Mean
[9] = PBMC + LPS(5 ug/ml) + 0.01 uM, single replicates
[10] = PBMC + LPS(5 ug/ml) + 0.1 uM, Mean
[11] = PBMC + LPS(5 ug/ml) + 0.1 uM, single replicates
[12] = PBMC + LPS(5 ug/ml) + 1 uM, Mean
[13] = PBMC + LPS(5 ug/ml) + 1 uM, single replicates
[14] = PBMC + LPS(5 ug/ml) + 10 uM, Mean
[15] = PBMC + LPS(5 ug/ml) + 10 uM, single replicates
[16] = PBMC + LPS(5 ug/ml) + 100 uM, Mean
[17] = PBMC + LPS(5 ug/ml) + 100 uM, single replicates

**Q.** Which “MMP-9 Concentration” value (PBMC + 0.01 uM, no LPS, Mean) does the source give for `CC(C)C[C@H](NC(=O)CNC(=O)[C@H](CC(=O)O)NC(=O)[C@H](CCC(N)=O)NC(=O)CNC(=O)[C@@H]1C[C@@H](O)CN1)C(=O)N[C@@H](C)C(=O)NCC(=O)N1CCC[C@H]1C(=O)N[C@@H](CCCCN)C(=O)O` [YY-101] (H-[Hyp]GQDGLAGPK-OH; N-terminus and C-terminus assumed) here?
**A.** Its value is 6947.7 pg/mL.

**Q.** What about the MMP-9 conc/live cell (PBMC + 0.01 uM, no LPS, Mean) of the same compound?
**A.** The MMP-9 conc/live cell was 1395.6 pg/10^5.

**Q.** What about the “MMP-9 Concentration” value [1] of the same compound?
**A.** Its value is 6464.0 pg/mL and 7431.3 pg/mL.

**Q.** And the MMP-9 conc/live cell [1]?
**A.** Its MMP-9 conc/live cell is 1243.1 pg/10^5 and 1548.2 pg/10^5.

**Q.** What about the “MMP-9 Concentration” value (PBMC + 0.1 uM, no LPS, Mean) of the same compound?
**A.** Its value is 7041.0 pg/mL.

**Q.** And the MMP-9 conc/live cell (PBMC + 0.1 uM, no LPS, Mean)?
**A.** Its MMP-9 conc/live cell is 1365.4 pg/10^5.

**Q.** What about the “MMP-9 Concentration” value [2] of the same compound?
**A.** Its value is 5521.9 pg/mL and 8560.2 pg/mL.

**Q.** What about the MMP-9 conc/live cell [2] of the same compound?
**A.** Its MMP-9 conc/live cell is 1255.0 pg/10^5 and 1475.9 pg/10^5.

**Q.** And the “MMP-9 Concentration” value (PBMC + 1 uM, no LPS, Mean)?
**A.** Its value is 7016.7 pg/mL.

**Q.** And the MMP-9 conc/live cell (PBMC + 1 uM, no LPS, Mean)?
**A.** The MMP-9 conc/live cell was 1275.8 pg/10^5.

**Q.** What about the “MMP-9 Concentration” value [3] of the same compound?
**A.** The value was 6666.8 pg/mL and 7366.6 pg/mL.

**Q.** And the MMP-9 conc/live cell [3]?
**A.** The MMP-9 conc/live cell was 1212.2 pg/10^5 and 1339.4 pg/10^5.

**Q.** What about the “MMP-9 Concentration” value (PBMC + 10 uM, no LPS, Mean) of the same compound?
**A.** Its value is 10460.4 pg/mL.

**Q.** What about the MMP-9 conc/live cell (PBMC + 10 uM, no LPS, Mean) of the same compound?
**A.** Its MMP-9 conc/live cell is 1662.8 pg/10^5.

**Q.** And the “MMP-9 Concentration” value [4]?
**A.** The value was 13551.9 pg/mL and 7369.0 pg/mL.

**Q.** And the MMP-9 conc/live cell [4]?
**A.** Its MMP-9 conc/live cell is 2117.5 pg/10^5 and 1208.0 pg/10^5.

**Q.** What about the “MMP-9 Concentration” value (PBMC + 100 uM, no LPS, Mean) of the same compound?
**A.** The value was 5317.6 pg/mL.

**Q.** And the MMP-9 conc/live cell (PBMC + 100 uM, no LPS, Mean)?
**A.** The MMP-9 conc/live cell was 799.8 pg/10^5.

**Q.** And the “MMP-9 Concentration” value [5]?
**A.** The value was 6000.1 pg/mL and 4635.0 pg/mL.

**Q.** What about the MMP-9 conc/live cell [5] of the same compound?
**A.** The MMP-9 conc/live cell was 937.5 pg/10^5 and 662.1 pg/10^5.

**Q.** And the “MMP-9 Concentration” value [6]?
**A.** The value was 182.3 pg/mL.

**Q.** And the MMP-9 conc/live cell [6]?
**A.** Its MMP-9 conc/live cell is 28.3 pg/10^5.

**Q.** And the “MMP-9 Concentration” value [7]?
**A.** The value was 152.0 pg/mL and 155.2 pg/mL and 239.8 pg/mL.

**Q.** What about the MMP-9 conc/live cell [7] of the same compound?
**A.** The MMP-9 conc/live cell was 26.7 pg/10^5 and 21.9 pg/10^5 and 36.3 pg/10^5.

**Q.** What about the “MMP-9 Concentration” value [8] of the same compound?
**A.** The value was 150.9 pg/mL.

**Q.** What about the MMP-9 conc/live cell [8] of the same compound?
**A.** Its MMP-9 conc/live cell is 24.5 pg/10^5.

**Q.** And the “MMP-9 Concentration” value [9]?
**A.** The value was 161.5 pg/mL and 155.2 pg/mL and 135.8 pg/mL.

**Q.** And the MMP-9 conc/live cell [9]?
**A.** The MMP-9 conc/live cell was 25.2 pg/10^5 and 25.9 pg/10^5 and 22.3 pg/10^5.

**Q.** And the “MMP-9 Concentration” value [10]?
**A.** The value was 114.6 pg/mL.

**Q.** And the MMP-9 conc/live cell [10]?
**A.** Its MMP-9 conc/live cell is 19.7 pg/10^5.

**Q.** And the “MMP-9 Concentration” value [11]?
**A.** The value was 102.0 pg/mL and 119.2 pg/mL and 122.6 pg/mL.

**Q.** What about the MMP-9 conc/live cell [11] of the same compound?
**A.** The MMP-9 conc/live cell was 16.5 pg/10^5 and 22.9 pg/10^5 and 19.8 pg/10^5.

**Q.** And the “MMP-9 Concentration” value [12]?
**A.** Its value is 167.7 pg/mL.

**Q.** And the MMP-9 conc/live cell [12]?
**A.** The MMP-9 conc/live cell was 25.8 pg/10^5.

**Q.** What about the “MMP-9 Concentration” value [13] of the same compound?
**A.** Its value is 155.2 pg/mL and 161.5 pg/mL and 186.3 pg/mL.

**Q.** And the MMP-9 conc/live cell [13]?
**A.** Its MMP-9 conc/live cell is 24.6 pg/10^5 and 22.8 pg/10^5 and 30.1 pg/10^5.

**Q.** What about the “MMP-9 Concentration” value [14] of the same compound?
**A.** Its value is 157.2 pg/mL.

**Q.** What about the MMP-9 conc/live cell [14] of the same compound?
**A.** Its MMP-9 conc/live cell is 24.0 pg/10^5.

**Q.** And the “MMP-9 Concentration” value [15]?
**A.** The value was 161.5 pg/mL and 167.8 pg/mL and 142.4 pg/mL.

**Q.** And the MMP-9 conc/live cell [15]?
**A.** The MMP-9 conc/live cell was 26.9 pg/10^5 and 26.2 pg/10^5 and 18.7 pg/10^5.

**Q.** And the “MMP-9 Concentration” value [16]?
**A.** Its value is 96.1 pg/mL.

**Q.** And the MMP-9 conc/live cell [16]?
**A.** The MMP-9 conc/live cell was 16.5 pg/10^5.

**Q.** What about the “MMP-9 Concentration” value [17] of the same compound?
**A.** Its value is 98.5 pg/mL and 102.0 pg/mL and 87.7 pg/mL.

**Q.** What about the MMP-9 conc/live cell [17] of the same compound?
**A.** The MMP-9 conc/live cell was 15.6 pg/10^5 and 16.5 pg/10^5 and 17.5 pg/10^5.
